Reference: patent publication US20240279283A1, “CYCLIC PEPTIDE ANTIBIOTICS” (priority 2021, published 2024)
Bridge positions count the residues as written; N and C are the ends. Square brackets hold non-standard residues; d marks the D form. Peptide text beside a SMILES is read from it. Gly(Nα-CH2CH2CONH2) = NC(=O)CCNCC(=O)O; 1Nal = N[C@@H](Cc1cccc2ccccc12)C(=O)O; d1Nal = N[C@H](Cc1cccc2ccccc12)C(=O)O; dHis(π-Me) = Cn1cncc1C[C@@H](N)C(=O)O; His(π-Me) = Cn1cncc1C[C@H](N)C(=O)O; NMeY = CN[C@@H](Cc1ccc(O)cc1)C(=O)O; dNMeY = CN[C@H](Cc1ccc(O)cc1)C(=O)O; dAbu = CC[C@@H](N)C(=O)O; Abu = CC[C@H](N)C(=O)O

Tests used:
Assay type in all cases: cell-based
Details in all cases: LB broth, 5×10^5 CFU/ml, 37° C., 18 hours, scored by eye
[1] = system: E. coli 25922; test: Minimum Inhibitory Concentration (MIC) determination, E. coli 25922; parameters: unit not given here
Procedure, shortened: (§1)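 Peptides, diluted two-fold in LB broth from 10 mM DMSO stocks, were inoculated with 5×10^5 CFU/ml of each strain. Incubation was 18 h at 37 °C without shaking. MIC is the lowest concentration preventing visible growth, scored by eye.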

[2] = system: E. cloacae ATCC222; test: Minimum Inhibitory Concentration (MIC) determination, E. cloacae ATCC222; parameters: unit not given here
Experimental: (§2) MICs were determined by performing two-fold serial dilutions of peptides in LB broth to a final volume of 0.1 ml in round-bottom 96-well assay plates (Corning Life Sciences No 3788). Peptides were initially resuspended in 100% DMSO to 10 mM and subsequently diluted in LB medium to the appropriate concentration. Each well was inoculated with 5×10^5 CFU/ml of the screening stain and incubated at 37° C. without agitation for 18 hours. Plates were scored by eye, and the lowest compound concentration preventing visible growth was determined to be the MIC.

[3] = system: K. pneumoniae ATCC43816; test: Minimum Inhibitory Concentration (MIC) determination, K. pneumoniae ATCC43816; parameters: unit not given here
Experimental: as §2

[4] = system: E. coli BW25113; test: Minimum Inhibitory Concentration (MIC) determination, E. coli BW25113; parameters: unit not given here
Procedure, shortened: as §1

[5] = system: E. coli 25922 IMP; test: Minimum Inhibitory Concentration (MIC) determination, E. coli 25922 IMP
Procedure, shortened: as §1

Structure (SMILES) | MIC E. coli 25922 WUXI::MIC [1] | MIC E. cloacae ATCC222 WUXI::MIC [2] | MIC K. pneumoniae ATCC43816 Wuxi::MIC [3] | MIC E. coli BW25113 WUXI::MIC [4] | MIC E. coli 25922 IMP WUXI::MIC [5]
CC[C@@H]1NC(=O)[C@H](Cc2ccccc2)NC(=O)CSC[C@@H](C(=O)NCC(N)=O)NC(=O)[C@H](Cc2cncn2C)NC(=O)[C@H](C)NC(=O)[C@H](Cc2c[nH]cn2)NC(=O)[C@H](Cc2ccc(O)cc2)N(C)C(=O)[C@H](CCCNC(=N)N)NC(=O)[C@H](CO)NC(=O)CNC(=O)[C@H](Cc2c[nH]cn2)NC(=O)[C@H](Cc2cccc3ccccc23)NC1=O (stereo in doubt) [Compound 38] | 100 | 13 | 100 | 100 | 0.063
CC[C@H](C)[C@@H]1NC(=O)[C@H](Cc2ccccc2)NC(=O)CSC[C@@H](C(=O)NCC(N)=O)NC(=O)[C@H](Cc2cncn2C)NC(=O)[C@H](CCCNC(=N)N)NC(=O)[C@H](Cc2cnc[nH]2)NC(=O)[C@H](Cc2ccccc2)N(C)C(=O)[C@H](CCCNC(=N)N)NC(=O)[C@H](CO)NC(=O)CNC(=O)[C@H](Cc2cnc[nH]2)NC(=O)[C@H](Cc2c[nH]c3ccccc23)NC1=O (racemic) [Compound 15] | 50 | 3.1 | 75 | 100 | 0.016
CC[C@@H](C)[C@H]1NC(=O)[C@@H](Cc2ccccc2)NC(=O)CSC[C@H](C(=O)NCC(N)=O)NC(=O)[C@@H](Cc2cncn2C)NC(=O)[C@@H](CCCNC(=N)N)NC(=O)[C@@H](Cc2cnc[nH]2)NC(=O)[C@@H](Cc2ccc(O)cc2)N(C)C(=O)[C@@H](CCCNC(=N)N)NC(=O)[C@@H](CO)NC(=O)CNC(=O)[C@@H](Cc2cnc[nH]2)NC(=O)[C@@H](Cc2cccc3ccccc23)NC1=O (mixture of isomers) [Compound 18] | 9.65 | 0.78 | 19 | 19 | 0.00585
CC[C@@H]1NC(=O)[C@H](Cc2ccccc2)NC(=O)CSC[C@@H](C(=O)NCC(N)=O)NC(=O)[C@H](Cc2cncn2C)NC(=O)[C@H](CCCNC(=N)N)NC(=O)[C@H](Cc2c[nH]cn2)NC(=O)[C@H](Cc2ccc(O)cc2)N(C)C(=O)[C@H](CCCNC(=N)N)NC(=O)[C@H](CO)NC(=O)CN(CCC(N)=O)C(=O)[C@H](Cc2c[nH]cn2)NC(=O)[C@H](Cc2cccc3ccccc23)NC1=O [Compound 30] ({CH2CO}-F[Abu][1Nal]H[Gly(Nα-CH2CH2CONH2)]SR[NMeY]HR[His(π-Me)]CG-NH2; thioether N-12) | 25 | 1.6 | 100 | 50 | 0.016
CC[C@H]1NC(=O)[C@@H](Cc2ccccc2)NC(=O)CSC[C@H](C(=O)NCC(N)=O)NC(=O)[C@@H](Cc2cncn2C)NC(=O)[C@@H](CCCNC(=N)N)NC(=O)[C@@H](Cc2c[nH]cn2)NC(=O)[C@@H](Cc2ccc(O)cc2)N(C)C(=O)[C@@H](CCCNC(=N)N)NC(=O)[C@@H](CO)NC(=O)[C@@H](CCCNC(=N)N)NC(=O)[C@@H](Cc2c[nH]cn2)NC(=O)[C@@H](Cc2cccc3ccccc23)NC1=O [Compound 28] ({CH2CO}-[dF][dAbu][d1Nal][dH][dR][dS][dR][dNMeY][dH][dR][dHis(π-Me)][dC]G-NH2; thioether N-12) | 3.1 | 0.2 | 3.1 | 6.3 | 0.002
CC[C@@H]1NC(=O)[C@H](Cc2ccccc2)NC(=O)CSC[C@@H](C(=O)NCC(N)=O)NC(=O)[C@H](Cc2cncn2C)NC(=O)[C@H](CCCNC(=N)N)NC(=O)[C@H](C)NC(=O)[C@H](Cc2ccc(O)cc2)N(C)C(=O)[C@H](CCCNC(=N)N)NC(=O)[C@H](CO)NC(=O)CNC(=O)[C@H](Cc2c[nH]cn2)NC(=O)[C@H](Cc2cccc3ccccc23)NC1=O [Compound 37] ({CH2CO}-F[Abu][1Nal]HGSR[NMeY]AR[His(π-Me)]CG-NH2; thioether N-12) | 100 | 100 | 100 | 100 | 25
